{"source": "patent EP3720857B1", "about": "“2-OXO-5H-CHROMENO[4,3-B]PYRIDINES FOR USE IN THE TREATMENT OF HEPATITIS B” (Galapagos NV, priority 2017, dated 2019)", "key": {"HBV [1]": {"test_system": "HBV", "experiment": "Humanized mouse model of HBV infection in human-murine liver chimeric mice", "type": "in vivo, FRG KO mice", "set-up": "unit not given here", "conditions": "n=6", "protocol": "(asterisks), the group treated with illustrative compound 46 at 3 mg/kg p.o. q.d. (asterisks), the group treated with illustrative compound 46 at 30 mg/kg p.o. q.d. (filled squares), the group treated with illustrative compound 44 at 1 mg/kg p.o. q.d. (crosses), and the group treated with illustrative compound 44 at 10 mg/kg p.o. q.d. (filled circles).\nSix to ten weeks old male or female FRG KO mice (Fah-/-/Rag2-/-/Il2rg-/-triple knock-out - Yecuris Corporation P.O. Box 4645, Tualatin, OR 97062, USA) are used. They are provided with filtered tap water and standard chow ad libitum and maintained at 22 ± 2°C in 55 ± 10% humidity on a 12h light/dark cycle.\nEach mouse is repopulated by intra splenic injection of 1 to 2 10^6 human hepatocytes (Life Technologies ref HMCS2SA). To allow a progressive and efficacious repopulation, drinking water is regularly supplemented with Nitisinone (Yecuris, lot TNAK0002). The repopulation rate is controlled by hAlb dosage in serum (Euromedex ref E88-129). About 3 to 4 months after the human hepatocyte injection, mice for which repopulation is successful reach an hAlb level >1g/L and can be used for HBV infection.\nThe test compounds for p.o administration are formulated in Solutol at 2% (Sigma : Kolliphor hS15 12966-1kg lot BCBM0868V) and methylcellulose 0.5% at 98%\nEach mouse is injected with HBV-2015 batch ([…]) with an inoculum of 1.38 10^8 GE HBV (0.2 mL) via tail vein.\nSix to seven weeks after infection, blood is sampled under isoflurane anesthesia by retro-orbital puncture. HBsAg is dosed in serum by Elisa assay (Immunodiagnostic, ref HBSAG EIA). HBV DNA level is measured in the mice serum using qPCR (SYBR green). Only mice reaching HBsAg level above 1000UI/mL are kept and randomized.\nTreatment is given for 5 weeks according to body weight.\nBody weight is recorded every week.\nBetween Day 7 and Day 11, a steady state PK is performed with sampling of blood under isoflurane anesthesia by retro-orbital puncture at T=0, 1h, 3h, 6h post treatment. Plasma are frozen before decontamination with ethanol absolute 80% and transfer to bioanalysis laboratory for compound dosage by LCMS-MS.\nAt […], D8, D15, D22 and D28, blood is sampled under isoflurane anesthesia by retro-orbital puncture. To follow compounds efficacy, HBsAg is dosed in serum by Elisa assay (Immunodiagnostic, ref HBSAG EIA) and HBV DNA level is measured in serum using qPCR (SYBR green).\nAfter 5 weeks of treatment, mice are euthanized 2 hours after the last dosing for liver and blood collection.\nIn blood HBsAg is measured by Elisa assay, HBV DNA by qPCR and compound level by LCMS-MS.\nIn liver HBV DNA is measured by qPCR, compound level by LCMS-MS, pgRNA by RT-qPCR, HBcAg by immunohistochemistry (Dako ref B0586).\nWhen subjected to this protocol, the following results for illustrative compounds of the invention are obtained. Table VII. Infected mice HBsAg blood level variation"}, "HBV [2]": {"test_system": "HBV", "experiment": "Humanized mouse model of HBV infection in human-murine liver chimeric mice", "type": "in vivo, FRG KO mice", "set-up": "unit not given here", "conditions": "D1, mean, n=6"}}, "data": [{"smiles": "COCCCOc1cc2c(cc1F)-c1c(cc(C(=O)O)c(=O)n1C1CC1)[C@H](C(C)C)O2", "note": "[Compound 44, (5S)-1-cyclopropyl-9-fluoro-5-isopropyl-8-(3-methoxypropoxy)-2-oxo-5H-chromeno[4,3-b]pyridine-3-carboxylic acid]", "values": [{"measurement": "Infected mice HBsAg blood level", "setting": "HBV [1]; 1 mg/kg p.o q.d, D1, mean", "value": 4.5}, {"measurement": "Infected mice HBsAg blood level", "setting": "HBV [1]; 1 mg/kg p.o q.d, D8, mean", "value": 3.6}, {"measurement": "Infected mice HBsAg blood level", "setting": "HBV [1]; 1 mg/kg p.o q.d, D15, mean", "value": 3.5}, {"measurement": "Infected mice HBsAg blood level", "setting": "HBV [1]; 1 mg/kg p.o q.d, D22, mean", "value": 3.5}, {"measurement": "Infected mice HBsAg blood level", "setting": "HBV [1]; 1 mg/kg p.o q.d, D28, mean", "value": 3.6}, {"measurement": "Infected mice HBsAg blood level", "setting": "HBV [1]; 10 mg/kg p.o q.d, D1, mean", "value": 4.4}, {"measurement": "Infected mice HBsAg blood level", "setting": "HBV [1]; 10 mg/kg p.o q.d, D8, mean", "value": 3.4}, {"measurement": "Infected mice HBsAg blood level", "setting": "HBV [1]; 10 mg/kg p.o q.d, D15, mean", "value": 3.5}, {"measurement": "Infected mice HBsAg blood level", "setting": "HBV [1]; 10 mg/kg p.o q.d, D22, mean", "value": 3.4}, {"measurement": "Infected mice HBsAg blood level", "setting": "HBV [1]; 10 mg/kg p.o q.d, D28, mean", "value": 3.4}]}, {"smiles": "COCCCOc1cc2c(cc1Cl)-c1c(cc(C(=O)O)c(=O)n1C1CC1)[C@H](C1(C)COC1)O2", "note": "[Compound 46, (5R)-9-chloro-1-cyclopropyl-8-(3-methoxypropoxy)-5-(3-methyloxetan-3-yl)-2-oxo-5H-chromeno[4,3-b]pyridine-3-carboxylic acid]", "values": [{"measurement": "Infected mice HBsAg blood level", "setting": "HBV [1]; 0.3 mg/kg p.o q.d, D8, mean", "value": 3.7}, {"measurement": "Infected mice HBsAg blood level", "setting": "HBV [1]; 0.3 mg/kg p.o q.d, D15, mean", "value": 3.8}, {"measurement": "Infected mice HBsAg blood level", "setting": "HBV [1]; 0.3 mg/kg p.o q.d, D22, mean", "value": 3.9}, {"measurement": "Infected mice HBsAg blood level", "setting": "HBV [1]; 0.3 mg/kg p.o q.d, D28, mean", "value": 3.7}, {"measurement": "Infected mice HBsAg blood level", "setting": "HBV [1]; 3 mg/kg p.o q.d, D8, mean", "value": 3.4}, {"measurement": "Infected mice HBsAg blood level", "setting": "HBV [1]; 3 mg/kg p.o q.d, D15, mean", "value": 3.4}, {"measurement": "Infected mice HBsAg blood level", "setting": "HBV [1]; 3 mg/kg p.o q.d, D22, mean", "value": 3.4}, {"measurement": "Infected mice HBsAg blood level", "setting": "HBV [1]; 3 mg/kg p.o q.d, D28, mean", "value": 3.4}, {"measurement": "Infected mice HBsAg blood level", "setting": "HBV [1]; 30 mg/kg p.o q.d, D1, mean", "value": 4.4}, {"measurement": "Infected mice HBsAg blood level", "setting": "HBV [1]; 30 mg/kg p.o q.d, D8, mean", "value": 3.5}, {"measurement": "Infected mice HBsAg blood level", "setting": "HBV [1]; 30 mg/kg p.o q.d, D15, mean", "value": 3.5}, {"measurement": "Infected mice HBsAg blood level", "setting": "HBV [1]; 30 mg/kg p.o q.d, D22, mean", "value": 3.4}, {"measurement": "Infected mice HBsAg blood level", "setting": "HBV [1]; 30 mg/kg p.o q.d, D28, mean", "value": 3.5}, {"measurement": "Infected mice HBsAg blood level", "setting": "HBV [2]; 0.3 mg/kg p.o q.d", "value": 4.4}, {"measurement": "Infected mice HBsAg blood level", "setting": "HBV [2]; 3 mg/kg p.o q.d", "value": 4.4}]}]}
